From article PMC7363588, “Mapping of the FGF14:Nav1.6 complex interface reveals FLPK as a functionally active peptide modulating excitability” (Physiological Reports, 2020)
“Also recorded” adds a separate entry of the source. Peptide text beside a SMILES is read from it.

What was measured:
[1] = system: FGF14^Y158N/V160N:Nav1.6 complex; test: LCA, CLuc-FGF14^Y158N/V160N; assay type: cell-based, human; conditions: 50 µM peptide, 12 hr, HEK293, vs DMSO
FGF14 = target: T1, FGF14 (Homo sapiens, UniProt Q92915); test: SPR binding to FGF14; conditions: for binding to FGF14: SPR
T1 construct: aa 64–252); 6X His (N); made in house; host or cells: E. coli BL21 (DE3) pLys
T1 sequence (Q92915 64-252 isoform Q92915-2): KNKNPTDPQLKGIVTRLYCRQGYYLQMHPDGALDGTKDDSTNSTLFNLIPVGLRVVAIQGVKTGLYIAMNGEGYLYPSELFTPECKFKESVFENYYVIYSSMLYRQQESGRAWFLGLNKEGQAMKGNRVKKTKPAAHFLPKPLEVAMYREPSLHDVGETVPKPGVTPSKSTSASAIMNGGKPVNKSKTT
Excerpt: (§1) Plasmids used in this study derived from the following clones: human FGF14‐1b isoform (accession number: NM_175929.2) and human Nav1.6 (accession number: NM_014191.3). The CLuc‐FGF14, CD4‐Nav1.6‐NLuc, constructs and the pcDNA3.1 vector (Invitrogen, Carlsbad, CA) were engineered and characterized as previously described (Goetz et al., 2009; Shavkunov et al., 2012,2013,2015; Ali et al., 2016, 2018; Wadsworth et al., 2019). The plasmid pGL3 expressing full length Firefly (Photinus pyralis) luciferase was a gift from Dr. P. Sarkar (Department of Neurology, UTMB). For protein purification studies, cDNAs encoding FGF14‐1b (accession number NP_787125; aa 64–252) or the C‐terminal tail of Nav1.6 (accession number #NP_001171455; aa 1756–1939) were subcloned into suitable pET bacterial expression vectors (pET28a‐FGF14; pET30a‐Nav1.6) with a 6X His‐tag at the N‐terminal site; these plasmids were a gift of Dr. Moosa Mohammadi (NYU, Langone Medical Center). The mutation coding for FGF14^V160A was generated by site‐directed mutagenesis and PCR using FGF14‐1b as a template described previously (Ali et al., 2016). For electrophysiological studies FGF14‐GFP (human) and FGF14‐ΔNT‐GFP (human) were cloned into the GFP plasmid (pQBI‐fC2; Quantum Biotechnology Inc., Montreal, Canada) as previously described.
(§2) Upon transformation with corresponding cDNA clones, the recombinant proteins FGF14, FGF14^V160A and Nav1.6 C‐terminal tail were expressed in E. coli BL21 (DE3) pLys (Invitrogen) after induction with 0.1 mM isopropyl thio‐β‐D‐galacto‐pyranoside (IPTG) for 24 hr at 16°C. After induction with IPTG, bacterial cells were harvested and lysed by sonication at 4°C in lysis/binding buffer containing following components (mM): sodium phosphate 10 (prepared from 0.5 M of Na2HPO4 and NaH2PO4) + 3‐cholamidopropyl dimethylammonio 1‐propanesulfonate 0.1% pH 7.0 (for FGF14 proteins) + HEPES 25 + NaCl 150 + glycerol 10% (Nav1.6) pH 7.5 and containing 0.1 mM phenyl methyl sulphonyl fluoride (PMSF). The respective proteins were centrifuged at 18,000 g for 30 min at 4°C. For purification of FGF14 and FGF14^V160A, the supernatant was applied to preequilibrated heparin and the proteins were then eluted with NaCl 0.2–2.0 M in the elution (sodium phosphate 10 mM + NaCl 0.2–2.0 M pH 7.0) buffer. For purification of the Nav1.6 C‐tail, the supernatant was applied first to Ni^2+ NTA column and eluted with imidazole (200 mM). The Nav1.6 C‐tail was further purified using HiTrap QFF‐sepharose column (GE Healthcare Bio‐Sciences, Pittsburgh, PA) with a buffer containing Tris‐HCl 50 mM and eluted with NaCl (10–500 mM) at pH 7.5. Finally, all concentrated proteins were purified on an AKTA FPLC purifier using Superdex 200 Hiload 16 × 60 columns (GE Healthcare Bio‐Sciences) and equilibrated in Tris‐HCl 50 mM + NaCl 150 mM, pH 7.5 (Ali et al., 2016; Scala et al., 2018).
(§3) SPR experiments were performed on a Biacore T100 (GE Healthcare Bio‐Sciences, Pittsburgh, PA), and the interaction of FGF14 and Nav1.6 channel toward FLPK, PLEV and EYYV (1–100 µM) were studied at 25°C. To analyze the effects of FLPK, PLEV and EYYV on FGF14^WT (RU 16,000), FGF14^V160A (RU 18,000) and Nav1.6 C‐tail (RU 12,000), the proteins were immobilized on CM5 sensor chip using Acetate 5.5 with Amine Coupling Kit (Biacore GE Healthcare Bio‐Sciences). No protein was coupled to the control flow channel of the chip. Using a flow rate of 50 µl/min, FLPK, PLEV and EYYV (1–100 µM) diluted in HBS‐P^+ buffer were injected over the chip for 180 s, followed by injection of HBS‐P+ for 180 s to monitor dissociation, and finally the chip surface was regenerated with NaCl (200 mM). For each peptide injection, nonspecific responses (buffer only) were subtracted from experimental sensograms/traces prior to data analysis. Maximal equilibrium responses were plotted against peptide concentrations and association rate constant (kon), dissociation rate constatnt (koff) were determined. […]

Nav1.6 C-terminal tail = target: T2, Nav1.6 C-terminal tail (Homo sapiens, UniProt Q9UQD0); test: SPR binding to Nav1.6 C-terminal tail; conditions: for koff, dissociation rate constant / kon, association rate constant: CM5, 25°C, 1–100 µM, RU 12,000, N.M. = not measurable; for binding to Nav1.6 C-terminal tail: peptide 1–100 µM
T2 construct: aa 1756–1939); 6X His (N); made in house; host or cells: E. coli BL21 (DE3) pLys
Excerpt: as §1, §2, §3

[2] = Biacore T100, CM5, 25°C, peptide 1–100 µM in HBS-P+ pH 7.4, FGF14 RU 16,000, N.M. = not measurable

T2 sequence (Q9UQD0 1797-1980): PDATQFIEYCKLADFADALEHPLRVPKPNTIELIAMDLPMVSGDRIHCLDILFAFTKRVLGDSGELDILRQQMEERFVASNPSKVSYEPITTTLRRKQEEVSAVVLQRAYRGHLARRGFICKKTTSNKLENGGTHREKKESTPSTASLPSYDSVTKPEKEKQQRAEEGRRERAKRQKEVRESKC

Molecule	effect on FGF14^Y158N/V160N:Nav1.6 complex formation [1]	koff (FGF14; Biacore T100, CM5, 25°C, peptide 1–100 µM in HBS-P+ pH 7.4, FGF14 RU 16,000, N.M. = not measurable, read-out: koff, dissociation rate constant) [s⁻¹]	Kd (FGF14; Biacore T100, CM5, 25°C, peptide 1–100 µM, read-out: KD, equilibrium constant) [µM]	binding to FGF14 (FGF14; peptide 1–100 µM)	koff, dissociation rate constant (Nav1.6 C-terminal tail)	kon, association rate constant (Nav1.6 C-terminal tail)	binding to Nav1.6 C-terminal tail (Nav1.6 C-terminal tail)	koff, dissociation rate constant (FGF14; [2])	kon, association rate constant (FGF14; [2])
CC(=O)N[C@@H](Cc1ccccc1)C(=O)N[C@@H](CC(C)C)C(=O)N1CCC[C@H]1C(=O)N[C@@H](CCCCN)C(N)=O [FLPK] (Ac-FLPK-NH2)	abolished the effect of FLPK; also recorded: similarly abolished	0.000431	4.97	only FLPK exhibited measurable affinity	N.M.	N.M.	no measurable binding		
EYYV [tetrapeptide previously designed from FGF14:FGF14 dimer interface; docked with N-terminal acetylation and C-terminal amidation]				no appreciable affinity to either protein was detected	N.M.	N.M.	no appreciable affinity to either protein was detected	N.M.	N.M.
PLEV [tetrapeptide previously designed from FGF14:FGF14 dimer interface; docked with N-terminal acetylation and C-terminal amidation]	increased the inhibition			no appreciable affinity to either protein was detected	N.M.	N.M.	no appreciable affinity to either protein was detected	N.M.	N.M.
